# Test results published in the OPERA property sets (Mansouri et al. 2018).
row,Structure (SMILES),logP
1,CCCCC(=O)Nc1ccccc1,2.61
2,On1nc2ccccc2n1,0.69
3,CCC1(C2=CC3CCC(C2)C3)C(=O)NC(=O)NC1=O (stereo unspecified),2.53
4,COc1ccccc1CO,1.13
5,CC(C)(C)c1ccccc1OCC(=O)O,3.33
6,NCC(=O)NCC(=O)O,-2.92
7,NNc1ccc([N+](=O)[O-])cc1,1.41
8,COc1cccc2c1C(=N)c1c(O)c3c(c(O)c1C2=O)CC(O)(C(O)CO)CC3OC1CC(N2CCOCC2)C(O)C(C)O1 (stereo unspecified),1.43
9,CC(=O)c1ccc(C(O)C(CO)NC(=O)C(Cl)Cl)cc1 (stereo unspecified),0.57
10,ClCCl,1.25
11,OCCCc1ccncc1,0.58
12,CON(C)C(=O)Nc1ccc(Br)c(Cl)c1,3.09
13,CON=C(C(=O)NC1C(=O)N2C(C(=O)OC(C)OC(C)=O)=C(COC(N)=O)CSC12)c1ccco1 (stereo unspecified),0.89
14,CN(C)C(=O)Nc1ccc(C2CCCCC2)cc1,3.83
15,CC(O)CNCC(C)O (stereo unspecified),-0.82
16,Cc1ccc(S(I)=C(N(C)C)N(C)C)cc1Cl (stereo unspecified),0.45
17,O=C1C=C(Br)C(=O)c2ccccc21,2.44
18,O=C1C=C(N2CC2)C(=O)c2ccccc21,1.71
19,COc1cc(CC(=O)O)ccc1OC(C)C,1.75
20,CCC(NC(C)=O)C(=O)OC (stereo unspecified),-0.17
21,CNC(=O)Oc1cc(Cl)ccc1Cl,2.44
22,Cc1ccc2cc3c(ccc4ccccc43)c3c2c1CC3,6.42

row,Structure (SMILES),logP
1,O=C1CCC(=O)N1c1ccccc1,0.06
2,Nc1ccc2cc3ccccc3nc2c1,2.77
3,O=C(O)c1ccc(O)c(O)c1,0.86
4,CCC(C(N)=O)(C(N)=O)c1ccccc1,0.13
5,FC(F)(F)c1cccc(C(F)(F)F)c1,3.83
6,Cc1cccc(OCC(=O)O)c1,1.78
7,O=C(NP(=O)(N1CC1)N1CC1)c1ccccc1I,1.05
8,CC(C)c1cccc(OCC(=O)O)c1,2.59
9,COc1ccc(C=CC(=O)O)cc1OC,2.34
10,Nc1ccc(S(=O)(=O)c2ccc(F)cc2)cc1,2.17
11,NC(=O)CI,-0.19
12,O=[N+]([O-])c1cc(Cl)c(Cl)cc1Cl,3.48
13,CCCCNc1nc(NCC)nc(SC(F)F)n1,4.51
14,Cc1cc(C)c(N(C)C)c(C)c1,4.41
15,O=C1NC(=S)NC(=O)C1C(=O)Nc1ccccc1,0.14
16,O=[N+]([O-])c1ccncc1,0.33
17,COc1cccc(OCC(=O)NNC(C)C)c1,1.33
18,O=c1cnn(C2OC(CO)C(O)C2O)c(=O)[nH]1 (stereo unspecified),-2.14
19,NC(CC12CC3CC(CC(C3)C1)C2)C(=O)O (stereo unspecified),0.43
20,c1nnnn1C12CC3CC(CC(C3)C1)C2,2.95
21,C1CCCCCC1,4
22,COC(=O)Cc1ccccc1,1.83

row,Structure (SMILES),logP
1,Fc1ccc(CCl)cc1,2.73
2,Oc1ccc(C(F)(F)F)cc1,2.82
3,Clc1ccc2ccccc2n1,2.71
4,c1ccc(-c2cnc(-c3ccccc3)o2)cc1,4.67
5,CCC(=O)C(CC(C)N(C)C)(c1ccccc1)c1ccccc1 (stereo unspecified),3.93
6,CNC(=O)Oc1ccc(SC)cc1,1.92
7,CNC(=O)OCc1cccc(COC(=O)NC)n1,0.24
8,O=C(C(=O)c1ccco1)c1ccco1,1.24
9,COc1ccc(-c2nc3cnccc3n2C)c(OC)c1,2.66
10,CN(C)C(=O)N(c1ccccc1)c1ccccc1,2.8
11,COc1cccc(OC(=O)c2ccc(N)cc2O)c1,3.25
12,C1CNCCN1,-1.5
13,CC12CCC(=O)C=C1CCC1C2C(O)CC2(C)C1CCC2(O)C(=O)COC(=O)CCCCCO (stereo unspecified),2.79
14,COc1cccc([N+](=O)[O-])c1,2.16
15,O=C(O)c1cc(O)cc(O)c1,0.86
16,C=CC=CCC,3.16
17,COc1cnnc2ccccc12,1.41
18,NC(=O)c1ccc(C(O)C(CO)NC(=O)C(Cl)Cl)cc1 (stereo unspecified),-0.48
19,O=C(O)CS,0.09
20,Nc1nc2nn[nH]c2c(=O)[nH]1,-0.71
21,CCc1ccc[nH]1,1.59
22,Oc1cccc2c(O)cccc12,1.94
